# Data as given in patent publication US5593970A, “Heterocyclic anthracycline analogs” (priority 1994, dated 1997).
# Where “and” joins values, the source holds several entries; their conditions need not be identical. Identical values can stand only once. Like-named read-outs stand apart in the source and are kept apart here.
# Tests used:
# SKVLB = assay: Microculture tetrazolium assay; format: cell-based; conditions: for VLB/OV3: IC50 ratio SKVLB/SKOV3; for IC50: SKVLB
# T47D = assay: Microculture tetrazolium assay; format: cell-based
# LOX = assay: Microculture tetrazolium assay; format: cell-based; conditions: read-out: IC50
# Leukemia = assay: NCI assay, average per cancer type; conditions: for CC50: 48 h, read-out: Average LOG10 LC50; for Average LOG10 LC50: Leukemia, 2880 min; for GI50: read-out: Average LOG10 GI50
# NSC Lung = assay: NCI assay, average per cancer type; conditions: for CC50 / GI50: Homo sapiens; for CC50: 48 h, read-out: Average LOG10 LC50; for GI50: read-out: Average LOG10 GI50; for Average LOG10 LC50: NSC Lung, 2880 min
# SC Lung = assay: NCI assay, average per cancer type; conditions: for GI50: Homo sapiens, read-out: Average LOG10 GI50; for Average LOG10 LC50: SC Lung, 2880 min
# Colon = assay: NCI assay, average per cancer type; conditions: for Average LOG10 LC50: Colon, 2880 min; for CC50 / GI50: Homo sapiens; for CC50: 48 h, read-out: Average LOG10 LC50; for GI50: read-out: Average LOG10 GI50
# CNS = assay: NCI assay, average per cancer type; conditions: for GI50: Homo sapiens, read-out: Average LOG10 GI50
# Melanoma = assay: NCI assay, average per cancer type; conditions: for CC50 / GI50: Homo sapiens; for CC50: 48 h, read-out: Average LOG10 LC50; for GI50: read-out: Average LOG10 GI50; for Average LOG10 LC50: Melanoma, 2880 min
# Ovarian = assay: NCI assay, average per cancer type; conditions: for GI50: Homo sapiens, read-out: Average LOG10 GI50
# Renal = assay: NCI assay, average per cancer type; conditions: for CC50 / GI50: Homo sapiens; for CC50: 48 h, read-out: Average LOG10 LC50; for GI50: read-out: Average LOG10 GI50; for Average LOG10 LC50: Renal, 2880 min
# solid tumors = assay: NCI assay, mean potency in solid tumors; conditions: for GI50: Homo sapiens, read-out: Average LOG10 GI50, Mean Potency in solid tumors; for Average LOG10 LC50, Mean Potency in solid tumors: 2880 min
# MCF7/ADR = assay: Soft agar colony formation disk diffusion assay; format: cell-based, human; conditions: 100 μg/DISK
# Description: (§1) A more elaborate version of this fundamental assay, the soft agar colony formation disk diffusion assay was used. This assay defines the relative activity of one particular drug versus a tumoral cell line type. The effect of the test drug against tumoral cells could be measured by its inhibitory capacity against colony formation after the delivery of the compound, in different concentrations on an filter disk(4). A modified technique of this assay was used in order to investigate the antiproliferative activity of candidate compounds. Tumoral cells from solid tumors and ascitic lines were plated separately in a two layer agar matrix. Cell lines to be tested were suspended in an upper layer of 0.4% Noble agar (Difco#00142-01) in RPMI-1066 (Gibco#3201875) at a yield varying between 10^4 to 2×10^5 cells per 60 mm Petri dish. Plating efficiency was determined for each line in order to achieve an optimal number of colonies per dish. Plates were examined before drug administration to confirm a uniform dispersion of single cells. The bottom layer consisted of 0.8% Noble agar, 0.8% Tryptic Soy Broth (difco#0037001)in CMRL-1066/Fischer's. The bottom layers were used within 2 and 9 days of preparation. Plated dishes (bottom layer of agar, upper layer of cells and administered drug were incubated in humidified atmosphere at 37° C., 5% CO2 for 10-20 days depending upon the time necessary to observe adequate colonies (defined as a cell aggregate of more than 50 cells) both control and drug inhibited. Drugs were administered on a paper filter disk (Whatman No. 1) of 6.5 mm diameter placed on the upper layer at 1/3 distance from the edge of the dish. The anti-clonogenic activity of the compounds was measured as the zone of inhibition from the disk edge to the most proximal colonies. This zone of inhibition was checked on an inverted microscope (40×) and was measured with a micrometer mounted in the eyepiece. The ocular micrometer was calibrated with a stage micrometer set for a particular combination of ocular and objective lenses. […] We made a modification of the initial technique by not plating a solid tumor and a leukemia simultaneously in the same Petri dish. Anti-clonogenic tests performed on leukemia cell line have helped in the discovery of the majority of current clinically used cytostatic drugs. Our tests on solid tumor lines (animal or human) may help define active compounds with solid tumor specificity. […] HUMAN TUMORS. […] LS180 (13) and BE1(14) were obtained from the Oncology Dept. of the Montreal General Hospital. […] Cell lines were routinely passaged twice a week by trypsinization and maintained in 25, or 75-sq. cm Falcon Plastic flasks at 37° C., 5% CO2 in humidified atmosphere. Both compounds were dissolved in DMSO (1 mg/100 ul) and brought to final volume (250 ul) with Millipore deionized sterile water. Further dilutions were made with […] volume of 25 ul of freshly prepared solution was placed on the filter disk and allowed to dry.
# MCF7 = assay: Soft agar colony formation disk diffusion assay; format: cell-based, human; conditions: 100 μg/DISK
# Description: as §1
# MATB.WT = assay: Soft agar colony formation disk diffusion assay; format: cell-based, rat; conditions: 100 μg/DISK
# Description: (§2) A more elaborate version of this fundamental assay, the soft agar colony formation disk diffusion assay was used. This assay defines the relative activity of one particular drug versus a tumoral cell line type. The effect of the test drug against tumoral cells could be measured by its inhibitory capacity against colony formation after the delivery of the compound, in different concentrations on an filter disk(4). A modified technique of this assay was used in order to investigate the antiproliferative activity of candidate compounds. Tumoral cells from solid tumors and ascitic lines were plated separately in a two layer agar matrix. Cell lines to be tested were suspended in an upper layer of 0.4% Noble agar (Difco#00142-01) in RPMI-1066 (Gibco#3201875) at a yield varying between 10^4 to 2×10^5 cells per 60 mm Petri dish. Plating efficiency was determined for each line in order to achieve an optimal number of colonies per dish. Plates were examined before drug administration to confirm a uniform dispersion of single cells. The bottom layer consisted of 0.8% Noble agar, 0.8% Tryptic Soy Broth (difco#0037001)in CMRL-1066/Fischer's. The bottom layers were used within 2 and 9 days of preparation. Plated dishes (bottom layer of agar, upper layer of cells and administered drug were incubated in humidified atmosphere at 37° C., 5% CO2 for 10-20 days depending upon the time necessary to observe adequate colonies (defined as a cell aggregate of more than 50 cells) both control and drug inhibited. Drugs were administered on a paper filter disk (Whatman No. 1) of 6.5 mm diameter placed on the upper layer at 1/3 distance from the edge of the dish. The anti-clonogenic activity of the compounds was measured as the zone of inhibition from the disk edge to the most proximal colonies. This zone of inhibition was checked on an inverted microscope (40×) and was measured with a micrometer mounted in the eyepiece. The ocular micrometer was calibrated with a stage micrometer set for a particular combination of ocular and objective lenses. […] We made a modification of the initial technique by not plating a solid tumor and a leukemia simultaneously in the same Petri dish. Anti-clonogenic tests performed on leukemia cell line have helped in the discovery of the majority of current clinically used cytostatic drugs. Our tests on solid tumor lines (animal or human) may help define active compounds with solid tumor specificity. […] Murine tumors were maintained IN VIVO in order to diminish the selection of subpopulations of cells normally present in the heterogenous IN VIVO tumor. The actual drug sensitivity assay was done IN VITRO. For these experiments cells from freshly excised tumors or from ascitic fluids were maintained in RPMI-1066. Both compounds were dissolved in DMSO (1 mg/100 ul) and brought to final volume (250 ul) with Millipore deionized sterile water. Further dilutions were made with […] volume of 25 ul of freshly prepared solution was placed on the filter disk and allowed to dry.
# MATB/ADR = assay: Soft agar colony formation disk diffusion assay; format: cell-based, rat
# Description: as §2
# SKOV3 = assay: Microculture tetrazolium assay; format: cell-based; conditions: read-out: IC50
# HT29 = assay: Microculture tetrazolium assay; format: cell-based; conditions: read-out: IC50
compound,measurement,setting,value
"COc1cccc2c1C(=O)c1c(O)c3c(c(O)c1C2=O)C[C@@](O)(C(=O)CO)C[C@@H]3O[C@H]1C[C@H](N)[C@H](O)[C@H](C)O1 [ADR, reference compound]",VLB/OV3,SKVLB; listed as Adriamycin,82.63 and 121.5
same,IC50,SKVLB,4.72 µM
same,IC50,T47D; Homo sapiens,0.0763 µM
same,IC50,T47D; listed as Adriamycin,0.072 µM
same,IC50,LOX,0.0437 µM
same,CC50,Leukemia,17.4 µM
same,Average LOG10 LC50,Leukemia,-4.76 ± 0.10 log molar
same,GI50,Leukemia,0.0309 µM
same,CC50,NSC Lung,9.77 µM
same,GI50,NSC Lung,0.0468 µM
same,Average LOG10 LC50,NSC Lung,-5.01 ± 0.26 log molar
same,GI50,SC Lung,0.0537 µM
same,Average LOG10 LC50,SC Lung,-5.39 ± 0.18 log molar
same,Average LOG10 LC50,Colon,-4.86 ± 0.27 log molar
same,CC50,Colon,13.8 µM
same,GI50,Colon,0.245 µM
same,GI50,CNS,0.0851 µM
same,CC50,Melanoma,2.75 µM
same,GI50,Melanoma,0.12 µM
same,Average LOG10 LC50,Melanoma,-5.56 ± 0.29 log molar
same,GI50,Ovarian,0.282 µM
same,CC50,Renal,13.5 µM
same,GI50,Renal,0.182 µM
same,Average LOG10 LC50,Renal,-4.87 ± 0.38 log molar
same,GI50,solid tumors,0.117 µM
same,"Average LOG10 LC50, Mean Potency in solid tumors",solid tumors,-5.07 ± 0.28 log molar
CCOC(=O)C1Cc2c(OCC)c3c(c(O)c2C(O[C@H]2C[C@H](NC(=O)C(F)(F)F)[C@H](O)[C@H](C)O2)O1)C(=O)c1ccccc1C3=O (some centres unmarked) [BCH-705],zone of inhibition,MCF7/ADR,35.5 ± 7.3 Zone Units
same,zone of inhibition,MCF7,79.3 ± 8.6 Zone Units
same,zone of inhibition,MATB.WT,259.2 ± 21.5 Zone Units
same,"cross resistance with adriamycin, MATB/ADR vs MATB.WT",MATB/ADR,no cross resistance with adriamycin
same,zone of inhibition,MATB/ADR; 100 μg/DISK,155.5 ± 4.3 Zone Units
same,IC50,"SKOV3; Homo sapiens, SK-OV-3, SKOV3",12.9 µM
same,VLB/OV3,SKVLB,1.09
same,IC50,SKVLB; read-out: IC50,14.1 µM
"CC(=O)[C@@H]1CC2=C(C(=O)c3cc4ccccc4c(O)c3C2=O)[C@@H](O[C@H]2C[C@H](NC(=O)C(F)(F)F)[C@H](OS(C)(=O)=O)[C@H](C)O2)O1 [BCH-2093, (1S,1R,3S)-Methyl-(6-hydroxy-1-(2',3',4',6'-tetradeoxy-3'-trifluoroacetamido-4'-O-methanesulfonyl-L-lyxohexopyranose)-5,12-dioxo-3,4,5,12-tetrahydroanthraceno[2,3-c]pyran-3-yl)ketone]",IC50,"SKOV3; Homo sapiens, SK-OV-3, SKOV3",10.3 µM
same,VLB/OV3,SKVLB,3.82
same,IC50,SKVLB; read-out: IC50,39.3 µM
same,IC50,"T47D; Homo sapiens, read-out: IC50",15.9 µM
same,IC50,LOX,4.36 µM
same,IC50,"HT29; Homo sapiens, HT-29, HT29",2.8 µM
CC(=O)C1CC2=C(C(=O)c3cc4ccccc4c(O)c3C2=O)C(O[C@H]2C[C@H](NC(=O)C(F)(F)F)[C@H](OS(C)(=O)=O)[C@H](C)O2)O1 (some centres unmarked) [BCH-2094],IC50,"SKOV3; Homo sapiens, SK-OV-3, SKOV3",4.7 µM
same,VLB/OV3,SKVLB,2.55
same,IC50,SKVLB; read-out: IC50,12 µM
same,IC50,"T47D; Homo sapiens, read-out: IC50",6.51 µM
same,IC50,LOX,1.4 µM
same,IC50,"HT29; Homo sapiens, HT-29, HT29",1.06 µM
"COc1cccc2c1C(=O)c1c(O)c3c(c(O)c1C2=O)C[C@@](O)(C(C)=O)C[C@@H]3O[C@H]1C[C@H](N)[C@H](O)[C@H](C)O1 [DNM, reference compound]",CC50,Leukemia,50.1 µM
same,Average LOG10 LC50,Leukemia,-4.30 ± 0.36 log molar
same,GI50,Leukemia,0.0562 µM
same,CC50,NSC Lung,8.51 µM
same,GI50,NSC Lung,0.0912 µM
same,Average LOG10 LC50,NSC Lung,-5.07 ± 0.37 log molar
same,GI50,SC Lung,0.0724 µM
same,Average LOG10 LC50,SC Lung,-5.58 ± 0.09 log molar
same,Average LOG10 LC50,Colon,-4.83 ± 0.37 log molar
same,CC50,Colon,14.8 µM
same,GI50,Colon,0.151 µM
same,Average LOG10 LC50,"CNS; CNS, 2880 min",-5.08 ± 0.42 log molar
same,GI50,CNS,0.0912 µM
same,CC50,Melanoma,2.29 µM
same,GI50,Melanoma,0.112 µM
same,Average LOG10 LC50,Melanoma,-5.64 ± 0.17 log molar
same,GI50,Ovarian,0.138 µM
same,Average LOG10 LC50,"Ovarian; Ovarian, 2880 min",-4.78 ± 0.20 log molar
same,CC50,Renal,16.6 µM
same,GI50,Renal,0.162 µM
same,Average LOG10 LC50,Renal,-4.78 ± 0.46 log molar
same,GI50,solid tumors,0.112 µM
same,"Average LOG10 LC50, Mean Potency in solid tumors",solid tumors,-5.11 ± 0.34 log molar
"(1'S,1R,3R) and (1'S,1S,3S)-5,12-dioxo-3-ethyl-6-hydroxy-1-(2',3',6'-trideoxy-3'-trifluoroacetamido-4'-O-p-nitrobenzoyl-L-lyxohexopyranose)-3,4,5,12-tetrahydroanthraceno[2,3-C]pyran [BCH-1199]",IC50,SKOV3; SKOV3,32.3 µM
same,IC50,SKVLB; read-out: IC50,> 100 µM
same,IC50,T47D; read-out: IC50,46.2 µM
same,IC50,LOX,> 100 µM
same,IC50,HT29; HT29,> 100 µM
"(1'S,1R,3S) and (1'S,1S,3R)-Methyl-1-(2',3',6'-trideoxy-3-trifluoroacetamido-4'-O-p-nitrobenzoyl-L-lyxohexopyranose)-6,11'dioxo-5'-hydroxy-12-acetoxy-3,4,6,11-tetrahydroanthra-ceno-[2,3-C]-pyran-3-yl) ketone [BCH-1163]",IC50,SKOV3; SKOV3,11 µM
same,VLB/OV3,SKVLB,1.05
same,IC50,SKVLB; read-out: IC50,11.6 µM
same,IC50,T47D; read-out: IC50,5 µM
same,IC50,LOX,26.1 µM
same,IC50,HT29; HT29,4.67 µM
